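Step 1: Grow cells in 96-well plates. Step 2: Expose to compound for 48 hours at 5 concentrations. Step 3: Interpolate endpoints linearly; if unreached, use highest concentration. GI50 marks 50% less growth.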 The source made the active and inactive calls. Rule as the data show it: active = GI50 up to about 1.1 µM and inactive = higher.
Assays:
Test in all cases: NCI tumour cell line growth inhibition, 48 h
NCI-H522 = tested on: NCI-H522
CAKI-1 = tested on: CAKI-1
U-251 = tested on: U-251
HL-60 = tested on: HL-60
MDA-MB-435 = tested on: MDA-MB-435
A498 = tested on: A498
UACC-62 = tested on: UACC-62
Hs-578T = tested on: Hs-578T
SF-268 = tested on: SF-268
HCT-116 = tested on: HCT-116
OVCAR-5 = tested on: OVCAR-5
PC-3 = tested on: PC-3
LOX IMVI = tested on: LOX IMVI
SR = tested on: SR
SK-MEL-28 = tested on: SK-MEL-28
HCT-15 = tested on: HCT-15
RXF 393 = tested on: RXF 393
HOP-92 = tested on: HOP-92
UACC-257 = tested on: UACC-257
SK-OV-3 = tested on: SK-OV-3

Row | SMILES | GI50 (NCI-H522) | GI50 (CAKI-1) | GI50 (U-251) | GI50 (HL-60) | GI50 (MDA-MB-435) | GI50 (A498) | GI50 (UACC-62) | GI50 (Hs-578T) | GI50 (SF-268) | GI50 (HCT-116) | GI50 (OVCAR-5) | GI50 (PC-3) | GI50 (LOX IMVI) | GI50 (SR) | GI50 (SK-MEL-28) | GI50 (HCT-15) [µM] | GI50 (RXF 393) | GI50 (HOP-92) | GI50 (UACC-257) | GI50 (SK-OV-3)
1 | COc1ccc2nccc(SCC(=O)O)c2c1 | > 100 µM (inactive) | > 100 µM (inactive) | > 100 µM (inactive) | > 100 µM (inactive) | > 100 µM (inactive) | > 100 µM (inactive) | > 100 µM (inactive) | > 100 µM (inactive) | > 100 µM (inactive) | > 100 µM (inactive) | > 100 µM (inactive) | > 100 µM (inactive) | > 100 µM (inactive) | > 100 µM (inactive) | > 100 µM (inactive) | > 100 | > 100 µM (inactive) | > 100 µM (inactive) | > 100 µM (inactive) | 
2 | COc1cc(/C=C/c2ccnc3ccccc23)cc(OC)c1OC | 2.13 µM (inactive) | 3.7 µM (inactive) | 4.99 µM (inactive) | 0.416 µM (active) | 0.413 µM (active) | 4 µM (inactive) | 3.17 µM (inactive) | 3.85 µM (inactive) | 3.39 µM (inactive) | 1.82 µM (inactive) | 7.8 µM (inactive) | 9.29 µM (inactive) | 4.63 µM (inactive) | 1.35 µM (inactive) | 3.08 µM (inactive) | 2.56 | 1.63 µM (inactive) |  | 5.27 µM (inactive) | 4.19 µM (inactive)
3 | COc1ccc(/C=N/n2c(Cc3ccccc3)n[nH]c2=O)c(OC)c1 | > 52 µM (inactive) | > 51.4 µM (inactive) | 22 µM (inactive) |  | > 100 µM (inactive) | 44.4 µM (inactive) | > 88.3 µM (inactive) | 11.2 µM (inactive) | 15.5 µM (inactive) | 26.2 µM (inactive) | 49.1 µM (inactive) | > 100 µM (inactive) | 27.5 µM (inactive) | > 100 µM (inactive) | > 100 µM (inactive) | > 100 | 9.98 µM (inactive) | 24.2 µM (inactive) | > 100 µM (inactive) | 29.2 µM (inactive)
4 | Cc1cccc2c(N)c3cccc(C(=O)NCC[N+](C)(C)Cc4ccc([N+](=O)[O-])s4)c3nc12 | 5.28 µM (inactive) | 2.37 µM (inactive) | 2.91 µM (inactive) |  | 21.9 µM (inactive) | 4.65 µM (inactive) | 16.5 µM (inactive) | 8.51 µM (inactive) | 4.78 µM (inactive) | 3.83 µM (inactive) | 11.9 µM (inactive) | 7 µM (inactive) | 3.84 µM (inactive) | 1.19 µM (inactive) | 33 µM (inactive) | 3.74 | 8.36 µM (inactive) | 16 µM (inactive) | 23.7 µM (inactive) | 19.6 µM (inactive)
5 | COC(=O)C1=C(OC(=O)c2ccccc2)C(C(=O)OC)[C@@]2(O)[C@@H](C(=O)OC)[C@H](C)C[C@@H]1[C@@H]2C(=O)OC (stereo not given in full) | 13.2 µM (inactive) | 42.2 µM (inactive) | 35.4 µM (inactive) | 20.1 µM (inactive) | 25.3 µM (inactive) | 26.4 µM (inactive) | 39.7 µM (inactive) | 34.5 µM (inactive) | 47.8 µM (inactive) | 36 µM (inactive) | 47.2 µM (inactive) | 37.2 µM (inactive) | 32.1 µM (inactive) | 21.5 µM (inactive) | 27.2 µM (inactive) | 58.1 | 14.4 µM (inactive) |  | 33.3 µM (inactive) | 29.5 µM (inactive)
6 | CC(=O)OC(=C(C#N)C#N)c1nccnc1C(C)=O | 19.2 µM (inactive) | > 20 µM (inactive) | 6.07 µM (inactive) | 7.01 µM (inactive) | > 20 µM (inactive) | > 20 µM (inactive) | > 20 µM (inactive) | 4.44 µM (inactive) | 3.59 µM (inactive) |  | > 20 µM (inactive) | > 20 µM (inactive) | > 20 µM (inactive) | 18.5 µM (inactive) | 9.77 µM (inactive) | > 20 | 5.77 µM (inactive) | > 20 µM (inactive) | > 20 µM (inactive) | > 20 µM (inactive)
7 | CCn1c(-c2ccc(/N=N/Nc3ccc(-c4n[nH]c(=S)n4CC)cc3)cc2)n[nH]c1=S | 1.67 µM (inactive) | 2.7 µM (inactive) | 2.57 µM (inactive) | 2.93 µM (inactive) | 2.45 µM (inactive) | 3.3 µM (inactive) |  | 3.15 µM (inactive) | 3.24 µM (inactive) | 3.55 µM (inactive) |  | 2.75 µM (inactive) | 3.46 µM (inactive) | 3.47 µM (inactive) | 4.18 µM (inactive) | 3.03 | 3.43 µM (inactive) | 2.79 µM (inactive) | 3.15 µM (inactive) | 3.33 µM (inactive)
8 | O=C(/C=C/c1ccc2ccccc2c1)NCc1ccc(C(=O)NCc2ccccc2)cc1 | > 56.8 µM (inactive) | 28.3 µM (inactive) | > 60 µM (inactive) | 14.7 µM (inactive) | > 100 µM (inactive) | > 83.8 µM (inactive) | 97.9 µM (inactive) | 37.9 µM (inactive) | 36.5 µM (inactive) | > 100 µM (inactive) | > 100 µM (inactive) | > 100 µM (inactive) | > 100 µM (inactive) | > 100 µM (inactive) | > 100 µM (inactive) |  | 41.8 µM (inactive) | > 100 µM (inactive) | > 100 µM (inactive) | > 100 µM (inactive)
9 | O=C1CC(c2ccc(Cl)cc2)C2(C(=O)NC(=S)NC2=O)C(c2ccc(Cl)cc2)C1 (stereo not given) |  | 25.1 µM (inactive) | 29.2 µM (inactive) | 20.8 µM (inactive) | 19.5 µM (inactive) | 15.9 µM (inactive) | 16.1 µM (inactive) | 30 µM (inactive) | 16.2 µM (inactive) | 18.7 µM (inactive) | 19.6 µM (inactive) | 20.1 µM (inactive) | 28.3 µM (inactive) | 30.3 µM (inactive) | 16.1 µM (inactive) | 23.7 | 14.5 µM (inactive) | 5.31 µM (inactive) | 18.5 µM (inactive) | 14.9 µM (inactive)
10 | COc1ccc(/C=N/CCC/N=C/c2ccc(OC)cc2O)c(O)c1 | > 100 µM (inactive) |  | 40.6 µM (inactive) | 39.9 µM (inactive) | 46.1 µM (inactive) | > 100 µM (inactive) | 27 µM (inactive) | 22 µM (inactive) |  | 71.9 µM (inactive) | 64.4 µM (inactive) | 42 µM (inactive) |  | 54.6 µM (inactive) | 41 µM (inactive) | 37.5 | > 100 µM (inactive) | 17.6 µM (inactive) | 36.6 µM (inactive) | 
11 | O=Cc1ccc(-c2cc(C=O)c(-c3cccs3)[nH]2)s1 | 10.3 µM (inactive) | 9.4 µM (inactive) | 18.7 µM (inactive) |  | 25.6 µM (inactive) | 2.6 µM (inactive) | 27.5 µM (inactive) | 23.4 µM (inactive) | > 75 µM (inactive) | 22.8 µM (inactive) | > 75 µM (inactive) | 35.6 µM (inactive) | 25.3 µM (inactive) | 4.05 µM (inactive) | 36.3 µM (inactive) | 24.8 | 35.6 µM (inactive) | 32.7 µM (inactive) | 48 µM (inactive) | 48.4 µM (inactive)
12 | CC(C)(C)OC(=O)N[C@@H](Cc1ccccc1)C(=O)N1CC[C@@H](C(=O)N2[C@H]3CC4CC[C@@]3(CS2(=O)=O)C4(C)C)N1 |  | > 100 µM (inactive) | > 100 µM (inactive) | 75.5 µM (inactive) | 51.9 µM (inactive) | > 100 µM (inactive) | 52.4 µM (inactive) | 46.8 µM (inactive) | > 100 µM (inactive) | 47.3 µM (inactive) | > 100 µM (inactive) | 45.7 µM (inactive) | 75.9 µM (inactive) | > 100 µM (inactive) | > 100 µM (inactive) | 56.9 | > 100 µM (inactive) | > 100 µM (inactive) | > 100 µM (inactive) | > 100 µM (inactive)
13 | Cc1cc(C)c(C#N)c(SC(=S)NC(=O)c2ccccc2)n1 | > 100 µM (inactive) | > 100 µM (inactive) | > 100 µM (inactive) |  | > 100 µM (inactive) | > 100 µM (inactive) | > 100 µM (inactive) | > 100 µM (inactive) | > 100 µM (inactive) | > 100 µM (inactive) | > 100 µM (inactive) | > 100 µM (inactive) |  | > 100 µM (inactive) | > 100 µM (inactive) | > 100 | 3.95 µM (inactive) | > 100 µM (inactive) | > 100 µM (inactive) | 
14 | COc1ccccc1N1CCN(Cn2c(=O)oc3cccnc32)CC1 | > 100 µM (inactive) | > 100 µM (inactive) | 90.2 µM (inactive) | > 100 µM (inactive) | > 100 µM (inactive) | > 100 µM (inactive) |  | > 100 µM (inactive) | > 100 µM (inactive) | 56.4 µM (inactive) | > 100 µM (inactive) | > 100 µM (inactive) | > 100 µM (inactive) | 40.3 µM (inactive) | > 100 µM (inactive) | > 100 | > 100 µM (inactive) | > 100 µM (inactive) | > 100 µM (inactive) | > 100 µM (inactive)
15 | NC(=O)C[C@H](NC(=O)C1(NC(=O)[C@H](Cc2ccc(CP(=O)(O)O)cc2)NC(=O)C(=O)O)CCCCC1)C(=O)NCCCc1cccc2ccccc12 | > 10 µM (inactive) | > 10 µM (inactive) | > 10 µM (inactive) | > 10 µM (inactive) | > 10 µM (inactive) | > 10 µM (inactive) | > 10 µM (inactive) | > 10 µM (inactive) | > 10 µM (inactive) | > 10 µM (inactive) | > 10 µM (inactive) | > 10 µM (inactive) | > 10 µM (inactive) | 1.82 µM (inactive) | > 10 µM (inactive) | > 10 | > 10 µM (inactive) | > 10 µM (inactive) | > 10 µM (inactive) | > 10 µM (inactive)
